Experiment [1] concerns PdiBu-Induced Epidermal Hyperplasia. Nature of the experiment: PdiBu-induced epidermal hyperplasia mouse model (psoriasis). Type of experiment: in vivo, hairless mice.
Protocol: The phorbol ester, PdiBu (20 nmol in 20 μl if acetone) was applied to both ears of hairless mice (h/h) (approximately 1 cm^2 each). The test compounds (in total volume of 20 μl) were then applied to the right ear immediately (15 to 30 min) following PdiBu. The left ear of each animal received an equivalent amount (20 μl) of vehicle. Test compounds (and vehicle) were reapplied at 6 and 18 hours following PdiBu. Treatment times were staggered to allow exact time intervals to be obtained. At 30 hours after PdiBu, animals were anesthetized, and ear thickness values were obtained using a microcaliper. The weights of punch biopsies (6mm) were then obtained. Histology was performed on selected samples taken at 30 hours.
Left ear in each animal served as vehicle-treated controls (PdiBu+ETOH). Thus, the controls for this series include: 1) Untreated controls; 2) PdiBu plus vehicle alone (included for each mouse tested); 3) PdiBu plus AHA; 4) PdiBu plus Lidex® as a positive control.
For experiment [2], the system named is MMPs. Particulars: cited from earlier work.
Experiment [3] deals with T1, Human gingival fibrblast collagenase (Homo sapiens, UniProt P03956).
T1 construct: endogenous in cells; host or cells: human gingival fibroblasts
T1 sequence (P03956 100-469): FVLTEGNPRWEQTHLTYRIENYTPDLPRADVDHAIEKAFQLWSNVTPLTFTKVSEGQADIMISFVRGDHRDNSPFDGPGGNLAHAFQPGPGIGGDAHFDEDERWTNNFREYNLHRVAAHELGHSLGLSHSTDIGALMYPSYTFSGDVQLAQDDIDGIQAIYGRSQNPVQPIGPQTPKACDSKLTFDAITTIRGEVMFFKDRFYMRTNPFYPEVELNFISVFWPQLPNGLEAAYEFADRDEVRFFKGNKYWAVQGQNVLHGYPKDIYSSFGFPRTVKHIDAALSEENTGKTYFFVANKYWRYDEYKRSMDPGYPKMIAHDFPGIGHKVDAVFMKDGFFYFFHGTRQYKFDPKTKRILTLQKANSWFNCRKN
Briefly: inhibition of human gingival fibroblast collagenase (Table 2). Format: biochemical. Particulars: read-out: HGFC inhibitory activity.
Protocol: (§1) Specifically, assay of inhibition activity can be conducted as follows. […] Assays for inhibition of human stromelysin are conducted as described by Teahan, J., et al., Biochemistry (1989) 20:8497-8501.
(§2) Assay of inhibition activity can be conducted using a fluorogenic substrate developed by Knight et al., FEBS Letters (1992) 296:263. This method uses a fluorometer to determine the rate of substrate hydrolysis in a 96 well plate format. Reaction rates are determined at several substrate concentrations, and multiple inhibitor levels. The data are analyzed by Lineweaver-Burk, Dixon and Henderson plot analyses (Enzyme Kinetics (1975) Irwin Segal (John Wiley & Sons, Inc., publishers), and as described by Henderson, Biochem J. (1972) 127:321). The substrate levels range from 10-30μM. […] Inhibitors may be assayed against purified 72 kD gelatinase, 92 kD gelatinase, neutrophil collagenase, stromelysin or other proteases as appropriate. The enzymes are activated at 37° C. with APMA (4-aminophenylmercuric acetate), and the assays are carried out at room temperature.

In experiment [4] the target is Recombinant neutrophil collagenase (Homo sapiens, UniProt P22894). Nature of the experiment: inhibition of recombinant neutrophil collagenase (Table 2). Type of experiment: biochemical. The note with it: read-out: NC inhibitory activity.
Chain of Recombinant neutrophil collagenase (P22894 101-467): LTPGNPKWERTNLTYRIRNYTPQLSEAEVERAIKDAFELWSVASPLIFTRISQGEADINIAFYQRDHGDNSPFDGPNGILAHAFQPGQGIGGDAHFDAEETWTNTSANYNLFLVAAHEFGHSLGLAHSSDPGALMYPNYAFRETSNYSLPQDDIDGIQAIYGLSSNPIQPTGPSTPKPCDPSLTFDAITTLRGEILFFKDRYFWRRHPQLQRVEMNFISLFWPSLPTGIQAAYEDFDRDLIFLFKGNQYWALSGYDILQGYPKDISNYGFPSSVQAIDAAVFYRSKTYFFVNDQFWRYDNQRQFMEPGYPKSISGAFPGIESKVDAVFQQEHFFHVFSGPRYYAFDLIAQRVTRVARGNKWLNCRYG
Protocol: as §1, §2
Experiment [5] concerns the target Stromelysin (Homo sapiens, UniProt P08254). Briefly: inhibition of stromelysin (Table 2). Type of experiment: biochemical. The note with it: read-out: Strom inhibitory activity.
Protocol: as §1, §2
The target in experiment [6] is T2, Natural human 72kD gelatinase (Homo sapiens, UniProt P08253).
T2 sequence (P08253 110-660): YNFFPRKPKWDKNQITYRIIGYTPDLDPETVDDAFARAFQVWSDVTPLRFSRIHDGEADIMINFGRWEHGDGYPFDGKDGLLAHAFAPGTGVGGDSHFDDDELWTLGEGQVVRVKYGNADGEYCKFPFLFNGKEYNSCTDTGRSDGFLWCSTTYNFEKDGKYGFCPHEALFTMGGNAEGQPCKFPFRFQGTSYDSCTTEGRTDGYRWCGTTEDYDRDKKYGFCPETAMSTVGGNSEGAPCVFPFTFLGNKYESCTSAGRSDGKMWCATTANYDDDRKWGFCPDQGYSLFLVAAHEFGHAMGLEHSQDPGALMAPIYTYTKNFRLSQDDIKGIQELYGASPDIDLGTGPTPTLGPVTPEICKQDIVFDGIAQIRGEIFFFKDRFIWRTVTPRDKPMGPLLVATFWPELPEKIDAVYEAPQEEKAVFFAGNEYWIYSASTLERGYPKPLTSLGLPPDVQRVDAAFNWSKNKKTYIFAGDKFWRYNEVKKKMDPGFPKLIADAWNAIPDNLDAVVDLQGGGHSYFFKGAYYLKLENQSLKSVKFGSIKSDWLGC
Briefly: inhibition of 72kD gelatinase (Table 2). Type of experiment: biochemical. The note with it: read-out: 72kD G inhibitory activity.
Protocol: as §1, §2

The target in experiment [7] is 92kD gelatinase (Homo sapiens, UniProt P14780). Briefly: inhibition of 92kD gelatinase (Table 2). Type of experiment: biochemical. Particulars: read-out: 92kD G inhibitory activity.
Chain of 92kD gelatinase (P14780 107-707 limits assumed): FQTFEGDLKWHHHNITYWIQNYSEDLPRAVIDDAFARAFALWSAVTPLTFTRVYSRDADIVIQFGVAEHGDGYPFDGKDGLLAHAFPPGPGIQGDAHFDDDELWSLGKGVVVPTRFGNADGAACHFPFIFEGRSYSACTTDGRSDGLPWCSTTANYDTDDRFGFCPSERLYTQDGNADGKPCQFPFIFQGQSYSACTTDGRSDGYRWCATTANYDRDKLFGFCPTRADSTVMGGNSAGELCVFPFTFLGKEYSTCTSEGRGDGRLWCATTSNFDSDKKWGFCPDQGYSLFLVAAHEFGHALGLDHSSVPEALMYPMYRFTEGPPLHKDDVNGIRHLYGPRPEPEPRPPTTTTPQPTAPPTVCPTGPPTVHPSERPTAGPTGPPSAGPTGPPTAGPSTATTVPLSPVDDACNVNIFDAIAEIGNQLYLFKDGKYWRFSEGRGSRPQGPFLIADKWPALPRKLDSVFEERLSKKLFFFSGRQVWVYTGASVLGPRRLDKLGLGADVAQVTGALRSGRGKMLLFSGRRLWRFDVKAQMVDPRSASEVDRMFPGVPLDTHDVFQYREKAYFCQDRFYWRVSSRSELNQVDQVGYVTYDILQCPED
Experiment [8] deals with angiogenesis. The note with it: cited from earlier work.

Chain of Stromelysin (P08254 100-477): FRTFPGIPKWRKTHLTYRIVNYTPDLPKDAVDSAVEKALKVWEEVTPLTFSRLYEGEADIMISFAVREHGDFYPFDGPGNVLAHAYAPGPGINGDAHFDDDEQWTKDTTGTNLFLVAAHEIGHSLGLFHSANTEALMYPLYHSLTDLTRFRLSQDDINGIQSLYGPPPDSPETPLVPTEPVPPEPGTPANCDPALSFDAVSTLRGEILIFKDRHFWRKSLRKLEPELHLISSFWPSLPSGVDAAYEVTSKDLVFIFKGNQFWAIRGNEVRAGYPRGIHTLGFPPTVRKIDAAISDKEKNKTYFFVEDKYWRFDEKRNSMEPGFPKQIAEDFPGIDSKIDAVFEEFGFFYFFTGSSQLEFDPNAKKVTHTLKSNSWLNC

`CC(=O)NO` [AHA, acetohydroxamic acid, reference compound]: the “ear thickness (AHA control)” value in experiment [1] (PdiBu + AHA, 0.53 μmol/ear at 0.25, 6.0 and 24 hours) amounted to 36.8 ± 1.3 inch × 10^-3. Moreover, the “biopsy weight (AHA control)” value in experiment [1] (PdiBu + AHA, 0.53 μmol/ear at 0.25, 6.0 and 24 hours, in mg) worked out at 24.1 ± 1.2. The “ear thickness (positive control section)” value in experiment [1] (Positive Control: Lidex (fluocinonide) section, single experiment) was determined as 15.8 ± 0.4. The “biopsy weight (positive control section)” value in experiment [1] (Positive Control: Lidex (fluocinonide) section, single experiment, in mg) came to 9.7 ± 0.3. In experiment [1] (topical), the “effect on PdiBu-induced ear thickness” value was “did not alter” and the “effect on PdiBu-induced increase in punch biopsy weight” value is listed as “did not alter”. The “inhibitory effects on MMPs” value in experiment [2] is reported as “devoid of inhibitory effects on MMPs”.

In the case of `C[C@H](NC(=O)[C@H](Cc1c[nH]c2ccccc12)NC(=O)[C@@H](CC(=O)O)NC(=O)OC(C)(C)C)c1ccccc1` [Compound 81], the Ki in experiment [3] is 0.5 µM; in experiment [4], > 10 µM; in experiment [5], > 10 µM; in experiment [6], > 10 µM; in experiment [7] it was > 10 µM.

With `C[C@H](NC(=O)[C@H](Cc1c[nH]c2ccccc12)NC(=O)[C@@H](CC(=O)NO)NC(=O)OC(C)(C)C)c1ccccc1` [Compound 82, Boc-D-beta-hydroxamidoaspartyl-1 -tryptophan-(S)-methylbenzylamide], the Ki in experiment [3] is 0.08 µM; in experiment [4], 3.26 µM; in experiment [5] it was > 10 µM; in experiment [6], 9.26 µM; in experiment [7], 3.58 µM.

Consider `CCCCC[C@H](CC(=O)NO)C(=O)N[C@H](C(=O)N1CCC[C@H]1CO)C(C)C` [actinonin], for which the “activity as an angiogenesis inhibitor” value in experiment [8] is reported as “angiogenesis inhibitor”.

The record behind these values is US5773438A, “Synthetic matrix metalloprotease inhibitors and use thereof” (Glycomed Incorporated, priority 1994, dated 1998).
